PubChem BioAssay (NCI)
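Abbreviation: GI50, concentration required for 50% inhibition of growth. TGI: total growth inhibition.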

What was measured:
Test in all cases: NCI-60 cell line screen, 384-well format
HS 578T breast = test system: HS 578T breast
OVCAR-4 ovarian = test system: OVCAR-4 ovarian
SNB-19 CNS = test system: SNB-19 CNS
BT-549 breast = test system: BT-549 breast
HOP-92 NSCLC = test system: HOP-92 NSCLC
HL-60(TB) leukemia = test system: HL-60(TB) leukemia
SK-OV-3 ovarian = test system: SK-OV-3 ovarian
HOP-62 NSCLC = test system: HOP-62 NSCLC
A549 NSCLC = test system: A549 NSCLC
T-47D breast = test system: T-47D breast
786-0 renal = test system: 786-0 renal
HCT-15 colon = test system: HCT-15 colon
A498 renal = test system: A498 renal
COLO 205 colon = test system: COLO 205 colon
NCI-H322M lung = test system: NCI-H322M lung
CCRF-CEM leukemia = test system: CCRF-CEM leukemia
U251 glioblastoma = test system: U251 glioblastoma
SK-MEL-28 melanoma = test system: SK-MEL-28 melanoma
MDA-MB-231 breast = test system: MDA-MB-231 breast
RXF 393 renal = test system: RXF 393 renal
SF-539 CNS = test system: SF-539 CNS
K-562 leukemia = test system: K-562 leukemia
SF-268 CNS = test system: SF-268 CNS
HCT-116 colon = test system: HCT-116 colon
HCC-2998 colon = test system: HCC-2998 colon
SNB-75 CNS = test system: SNB-75 CNS
MDA-MB-468 breast = test system: MDA-MB-468 breast
OVCAR-8 ovarian = test system: OVCAR-8 ovarian
SN12C renal = test system: SN12C renal
NCI-H23 lung = test system: NCI-H23 lung
OVCAR-5 ovarian = test system: OVCAR-5 ovarian
SF-295 CNS = test system: SF-295 CNS
NCI/ADR-RES ovarian = test system: NCI/ADR-RES ovarian
OVCAR-3 ovarian = test system: OVCAR-3 ovarian
MOLT-4 leukemia = test system: MOLT-4 leukemia
MALME-3M melanoma = test system: MALME-3M melanoma
IGROV1 ovarian = test system: IGROV1 ovarian
UO-31 renal = test system: UO-31 renal
NCI-H460 NSCLC = test system: NCI-H460 NSCLC
CAKI-1 renal = test system: CAKI-1 renal
UACC-257 melanoma = test system: UACC-257 melanoma
TK-10 renal = test system: TK-10 renal
DU-145 prostate = test system: DU-145 prostate
EKVX NSCLC = test system: EKVX NSCLC
SW-620 colon = test system: SW-620 colon

## O=C1CCC(N2Cc3cc(CNC(=O)C(F)(F)c4ccc(Cl)cc4)ccc3C2=O)C(=O)N1 (stereo not given)
HS 578T breast
  GI50: 78.1 nM
  TGI: > 100 µM
OVCAR-4 ovarian
  GI50: > 100 µM
  TGI: > 100 µM
SNB-19 CNS
  GI50: > 100 µM
  TGI: > 100 µM
BT-549 breast
  GI50: 61.3 nM
  TGI: 32.2 µM
HOP-92 NSCLC
  GI50: 210 nM
  TGI: > 100 µM
HL-60(TB) leukemia
  GI50: < 10 nM
  TGI: 10.6 nM
SK-OV-3 ovarian
  GI50: > 100 µM
  TGI: > 100 µM
HOP-62 NSCLC
  GI50: 835 nM
  TGI: > 100 µM
A549 NSCLC
  GI50: > 100 µM
  TGI: > 100 µM
T-47D breast
  GI50: 21.6 nM
  TGI: 17.8 µM
786-0 renal
  GI50: > 100 µM
  TGI: > 100 µM
HCT-15 colon
  GI50: 744 nM
  TGI: > 100 µM
A498 renal
  GI50: > 100 µM
  TGI: > 100 µM
COLO 205 colon
  GI50: 142 nM
  TGI: > 100 µM
NCI-H322M lung
  GI50: > 100 µM
  TGI: > 100 µM
CCRF-CEM leukemia
  GI50: < 10 nM
  TGI: 15 nM
U251 glioblastoma
  GI50: > 100 µM
  TGI: > 100 µM
SK-MEL-28 melanoma
  GI50: > 100 µM
  TGI: > 100 µM
MDA-MB-231 breast
  GI50: 87 nM
  TGI: > 100 µM
RXF 393 renal
  GI50: > 100 µM
  TGI: > 100 µM
SF-539 CNS
  GI50: > 100 µM
  TGI: > 100 µM
K-562 leukemia
  GI50: 68.4 µM
  TGI: > 100 µM
SF-268 CNS
  GI50: > 100 µM
  TGI: > 100 µM
HCT-116 colon
  GI50: > 100 µM
  TGI: > 100 µM
HCC-2998 colon
  GI50: 90.8 nM
  TGI: > 100 µM
SNB-75 CNS
  GI50: 463 nM
  TGI: > 100 µM
MDA-MB-468 breast
  GI50: < 10 nM
  TGI: 30.1 nM
OVCAR-8 ovarian
  GI50: 59 nM
  TGI: > 100 µM
SN12C renal
  GI50: > 100 µM
  TGI: > 100 µM
NCI-H23 lung
  GI50: > 100 µM
  TGI: > 100 µM
OVCAR-5 ovarian
  GI50: > 100 µM
  TGI: > 100 µM
SF-295 CNS
  GI50: > 100 µM
  TGI: > 100 µM
NCI/ADR-RES ovarian
  GI50: 24.7 µM
  TGI: > 100 µM
OVCAR-3 ovarian
  GI50: > 100 µM
  TGI: > 100 µM
MOLT-4 leukemia
  GI50: < 10 nM
  TGI: 13.3 nM
MALME-3M melanoma
  GI50: 101 nM
  TGI: > 100 µM
IGROV1 ovarian
  GI50: 568 nM
  TGI: > 100 µM
UO-31 renal
  GI50: > 100 µM
  TGI: > 100 µM
NCI-H460 NSCLC
  GI50: > 100 µM
  TGI: > 100 µM
CAKI-1 renal
  GI50: > 100 µM
  TGI: > 100 µM
UACC-257 melanoma
  GI50: > 100 µM
  TGI: > 100 µM
TK-10 renal
  GI50: > 100 µM
  TGI: > 100 µM
DU-145 prostate
  GI50: > 100 µM
  TGI: > 100 µM
EKVX NSCLC
  GI50: > 100 µM
  TGI: > 100 µM
SW-620 colon
  GI50: 88.5 nM
  TGI: > 100 µM
